Counter-ions that a name gives are not always drawn.
Target: T1, recombinant purified human EHMT2 913-1193 (Homo sapiens, UniProt Q96KQ7)
T1 construct: Recombinant purified human EHMT2 913-1193 (55 μM) synthesized by Viva was used for all experiments; purchased Viva
T1 sequence (Q96KQ7 913-1193): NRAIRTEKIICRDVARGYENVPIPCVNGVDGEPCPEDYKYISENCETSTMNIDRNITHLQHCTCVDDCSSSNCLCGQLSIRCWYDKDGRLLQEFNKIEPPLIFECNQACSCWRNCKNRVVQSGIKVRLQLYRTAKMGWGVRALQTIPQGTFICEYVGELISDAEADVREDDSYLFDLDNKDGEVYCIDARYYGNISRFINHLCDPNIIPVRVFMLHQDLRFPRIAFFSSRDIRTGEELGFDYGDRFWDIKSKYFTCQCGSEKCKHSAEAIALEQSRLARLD
Assay: EHMT2 enzyme assay on histone peptide substrate (3H-SAM Flashplate)
Format: biochemical
Conditions: read-out: EHMT2 PEP (IC50 μM)
How it was run: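 Compounds (10-point 3-fold series, top 50 μM final, 2% DMSO) preincubated 30 min with 0.031 nM EHMT2 in 20 mM Bicine pH 7.5, 1 mM TCEP; reaction started with 3H-SAM and biotinylated H3 1-15 peptide, both at Km, run 60 min at room temperature. Flashplate capture; IC50 from four-parameter fit, triplicates.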

SMILES | IC50 [µM]
CNc1cc(C)nc(Nc2ccc(OC)c(-n3cc4ccncc4n3)c2)n1 [Compound 41] | > 10
CNc1cc(C)nc(Nc2ccc(OC)c(-c3ccc4cc[nH]c4n3)c2)n1 [Compound 42] | > 10
CNc1cc(C)nc(Nc2ccc(OC)c(-n3cc4c(n3)CCOC4)c2)n1 [Compound 43] | > 10
CCn1cc(NC(=O)c2cc(Nc3nc(C)cc(NC)n3)ccc2OC)cn1 [Compound 49] | > 10
CNc1cc(C)nc(Nc2ccc(OC)c(-n3cc4c(n3)CCCN4)c2)n1 [Compound 56, N2-(4-methoxy-3-(4,5,6,7-tetrahydro-2H-pyrazolo[4,3-b]pyridin-2-yl)phenyl)-N4,6-dimethylpyrimidine-2,4-diamine hydrochloride] | > 10
CNc1cc(C)nc(Nc2cnc(OC)c(-n3cc4c(n3)CCN(C)C4)c2)n1 [Compound 57] | 1 to 10
CNc1cc(C)nc(Nc2cnc(OC)c(-c3nc4cnccn4n3)c2)n1 [Compound 60] | > 10
CNc1cc(C)nc(Nc2ccc(OC)c(-n3cnc(CN(C)C)n3)c2)n1 [Compound 61] | > 10
CNc1cc(C)nc(Nc2cnc(OC)c(-n3cnc(CN(C)C)n3)c2)n1 [Compound 62] | > 10
CNc1cc(C)nc(Nc2cc(-n3cc4c(n3)CCN(C)C4)c(OC)cn2)n1 [Compound 65] | > 10
CNc1cc(C)nc(Nc2ccc(OC)c(-n3cnc(CN4CCC4)n3)c2)n1 [Compound 67] | > 10
CNc1cc(C)nc(Nc2ccc(OC)c(-n3cnc(CN4CC(F)C4)n3)c2)n1 [Compound 68] | > 10
CNc1cc(C)nc(Nc2ccc(OC)c(-n3cc4c(n3)CCN(C3COC3)C4)c2)n1 [Compound 69] | > 10
CNc1cc(C)nc(Nc2ccc(OC)c(-c3nnc(CN(C)C)[nH]3)c2)n1 [Compound 73] | > 10
CNc1cc(C)nc(Nc2ccc(OC)c(-n3ncc4c3CN(C(C)=O)CC4)c2)n1 [Compound 75] | > 10
CNc1cc(C)nc(Nc2ccc(OC)c(-n3nccc3CNC(C)=O)c2)n1 [Compound 76] | > 10
CNc1cc(C)nc(Nc2ccc(OC)c(-c3nnc4n3CCN(C(=O)OC(C)(C)C)C4)c2)n1 [Compound 77] | > 10
CNc1cc(C)nc(Nc2ccc(OC)c(-c3nc4c([nH]3)CNCC4)c2)n1 [Compound 78] | 1 to 10
CNc1cc(C)nc(Nc2ccc(OC)c(-c3nc4c([nH]3)CN(C)CC4)c2)n1 [Compound 79] | 1 to 10
CNc1cc(C)nc(Nc2ccc(OC)c(-n3cc(C)c4c3CCN(C)C4)c2)n1 [Compound 81] | 1 to 10
COc1ncc(Nc2nc(C)cc(NCC3COC3)n2)cc1-n1cc(CN(C)C)nn1 [Compound 86] | > 10

SMILES | IC50 [µM]
CNc1cc(C)nc(Nc2ccc(OC)c(-c3cc4cnccn4n3)c2)n1 [Compound 93] | > 10
CNc1cc(C)nc(Nc2ccc(OC)c(-n3cc(C)c(CNC(C)=O)n3)c2)n1 [Compound 94] | > 10
CNc1cc(C)nc(Nc2ccc(OC)c(-n3ccc(CNC(C)=O)n3)c2)n1 [Compound 95] | > 10
CNc1cc(C)nc(Nc2ccc(OC)c(-n3ccc(CN(C)C(C)=O)n3)c2)n1 [Compound 96] | > 10
CNc1cc(C)nc(Nc2ccc(OC)c(-n3cc4c(C)nccc4n3)c2)n1 [Compound 99] | 1 to 10
CNc1cc(C)nc(Nc2ccc(OC)c(-n3cc4c(OC)nccc4n3)c2)n1 [Compound 100] | > 10
CNc1cc(C)nc(Nc2ccc(OC)c(-n3cc(C)c(CN(C)C)n3)c2)n1 [Compound 102] | 1 to 10
CNC(=O)c1cn(-c2cc(Nc3nc(C)cc(NC)n3)ccc2OC)nc1C [Compound 103] | > 10
CNC(=O)c1cnn(-c2cc(Nc3nc(C)cc(NC)n3)ccc2OC)c1 [Compound 104] | > 10
CNC(=O)c1c(C)nn(-c2cc(Nc3nc(C)cc(NC)n3)ccc2OC)c1C [Compound 105] | > 10
CNCc1c(C)nn(-c2cc(Nc3nc(C)cc(NC)n3)ccc2OC)c1C [Compound 106] | > 10
CNc1cc(C2CCOCC2)c2cc(OC)c(-n3cc(CN(C)C)nn3)cc2n1 [Compound 116] | 1 to 10
CNC(=O)c1cn(-c2cc(Nc3nc(C)cc(NC)n3)ccc2OC)nn1 [Compound 117] | > 10
CNc1cc(C)nc(Nc2ccc(OC)c(-n3ncc4ncccc43)c2)n1 [Compound 119] | > 10
CNCc1cn(-c2cc3nc(NC)cc(C)c3cc2OC)nn1 [Compound 122] | 1 to 10
CNC(=O)c1nn(-c2cc(Nc3nc(C)cc(NC)n3)ccc2OC)cc1C [Compound 134] | > 10
CNc1cc(C)nc(Nc2ccc(OC)c(-n3nnc(C)c3CN(C)C)c2)n1 [Compound 138] | > 10
CNc1cc(C)nc(Nc2ccc(OC)c(-n3nnc(CN(C)C)c3C)c2)n1 [Compound 139] | > 10
CNc1cc(C)nc(Nc2ccc(OC)c(-n3cc4cc(C)ccc4n3)c2)n1 [Compound 144] | 1 to 10
CNc1cc(C)nc(Nc2ccc(OC)c(-n3cc4cc(C5CC5)ccc4n3)c2)n1 [Compound 145] | > 10

More lines, now with the values ahead:

IC50 [µM] | SMILES
< 0.1 | CNc1cc(C)nc(Nc2ccc(OC)c(-n3cc4c(n3)CCN(C)C4)c2)n1 [Compound 2]
1 to 10 | CNc1cc(C)nc(Nc2ccc(OC)c(-n3cc4c(n3)CN(C)CC4)c2)n1 [Compound 3]
1 to 10 | CNc1cc(C)nc(Nc2ccc(OC)c(-n3ccc(CN4CCCC4)n3)c2)n1 [Compound 4, trifluoroacetic acid]
1 to 10 | CNc1cc(C)nc(Nc2ccc(OC)c(-n3cc(CN4CCCC4)cn3)c2)n1 [Compound 5, 2-N-[4-methoxy-3-[4-(pyrrolidin-1-ylmethyl)-1H-pyrazol-1-yl]phenyl]-4-N,6-dimethylpyrimidine-2,4-diamine]
1 to 10 | CNc1cc(C)nc(Nc2ccc(OC)c(-c3nc4cnccc4[nH]3)c2)n1 [Compound 47]
0.1 to 1 | CNc1cc(C)nc(Nc2ccc(OC)c(-c3cc4cnccc4[nH]3)c2)n1 [Compound 48]
0.1 to 1 | CNc1cc(C)nc(Nc2cnc(OC)c(-n3cc4c(n3)CCNC4)c2)n1 [Compound 50]
0.1 to 1 | CNc1cc(C)nc(Nc2ccc(OC)c(-n3cc(CN(C)C)nn3)c2)n1 [Compound 66]
0.1 to 1 | CCN1CCc2nn(-c3cc(Nc4nc(C)cc(NC)n4)ccc3OC)cc2C1 [Compound 70]
0.1 to 1 | CNc1cc(C)nc(Nc2cnc(OC)c(-n3cc(CN(C)C)cn3)c2)n1 [Compound 74]
0.1 to 1 | CNc1cc(C)nc(Nc2ccc(OC)c(-n3cc4c(n3)CCN(C3CC3)C4)c2)n1 [Compound 82]
0.1 to 1 | CNC(=O)CCNc1cc(C)nc(Nc2ccc(OC)c(-n3cc4c(n3)CCN(C)C4)c2)n1 [Compound 87]
0.1 to 1 | CNC(=O)N1CC(CNc2cc(C)nc(Nc3ccc(OC)c(-n4cc5c(n4)CCN(C)C5)c3)n2)C1 [Compound 88]
< 0.1 | CNc1cc(C)nc(Nc2ccc(OC)c(-n3cc(CN(C)C)cn3)c2)n1 [Compound 109, N2-(3-(4-((dimethylamino)methyl)-1H-pyrazol-1-yl)-4-methoxyphenyl)-N4,6-dimethylpyrimidine-2,4-diamine]
< 0.1 | CNc1cc(C)nc(Nc2ccc(OC)c(-n3ncc4c3CCNC4)c2)n1 [Compound 113, N2-(4-methoxy-3-(4,5,6,7-tetrahydro-1H-pyrazolo[4,3-c]pyridin-1-yl)phenyl)-N4,6-dimethylpyrimidine-2,4-diamine]
0.1 to 1 | CNc1cc(C)nc(Nc2ccc(OC)c(-n3cc(CN4CCC4)nn3)c2)n1 [Compound 121]
0.1 to 1 | CNc1cc(C)c2cc(OC)c(-n3cc(C4CCCN4)nn3)cc2n1 (stereo not shown) [Compound 125]
0.1 to 1 | CNc1cc(C)nc(Nc2ccc(OC)c(-n3cc(C4CCCN4C)nn3)c2)n1 (stereo not shown) [Compound 136]
< 0.1 | CNc1cc(C)nc(Nc2ccc(OC)c(-n3cc(C4CCCN4)nn3)c2)n1 (stereo not shown) [Compound 137, N2-(4-methoxy-3-(4-(pyrrolidin-2-yl)-1H-1,2,3-triazol-1-yl)phenyl)-N4,6-dimethylpyrimidine-2,4-diamine]
0.1 to 1 | CCN(CC)Cc1cn(-c2cc(Nc3nc(C)cc(NC)n3)ccc2OC)nn1 [Compound 143]
